Series [1] concerns the target NDM-1 (Klebsiella pneumoniae, UniProt C7C422). Description: biochemical. It counts as biochemical. Conditions: CCF2-FA fluorescence assay, 2 hours at 25° C. The procedure, abridged:
(§1)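 In 100 mM phosphate pH 7 containing Tween-20 and ZnSO4, NDM-1 (1 pM), IMP-1 (2 pM) or VIM-1 (30 pM) hydrolysed 1.25 μM CCF2-FA over 2 hours at 25° C with inhibitor present. Readout was 405/460 nm fluorescence.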

In series [2] the target is IMP-1 (Serratia marcescens, UniProt P52699). Put plainly: biochemical. The note with it: CCF2-FA fluorescence assay, 2 hours at 25° C.; read-out: IMP1 IC50. A digest of the protocol: as §1
Sequence of IMP-1 (P52699 whole entry, looked up, species assumed): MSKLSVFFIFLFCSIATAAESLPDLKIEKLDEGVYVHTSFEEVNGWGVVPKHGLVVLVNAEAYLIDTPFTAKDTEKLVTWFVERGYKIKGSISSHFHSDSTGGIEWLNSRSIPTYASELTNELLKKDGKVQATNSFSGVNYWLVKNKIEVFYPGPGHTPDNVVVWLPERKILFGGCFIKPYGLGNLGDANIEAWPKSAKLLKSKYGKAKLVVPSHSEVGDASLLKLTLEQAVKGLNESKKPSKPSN
Series [3] deals with VIM-1 (Pseudomonas aeruginosa (strain ATCC 15692 / DSM 22644 / CIP 104116 / JCM 14847 / LMG 12228 / 1C / PRS 101 / PAO1), UniProt A0A0F7KYQ8). Description: biochemical. The note with it: CCF2-FA fluorescence assay, 2 hours at 25° C.; read-out: VIM1 IC50. The procedure, abridged:
as §1

Series [4] has as its target VIM-2 (Escherichia coli, UniProt Q5U7L7). Description: biochemical. The note with it: CCF2-FA fluorescence assay; read-out: VIM2 IC50.
In series [5] the test system is Escherichia coli expressing NDM-1 (CLB30016). It counts as cell-based. Conditions: with imipenem 1 μg/ml; 95% inhibition of bacterial growth. The procedure, abridged:
(§2)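 Imipenem 1 μg/ml + inhibitor titration in cation-adjusted MHB (1.1× stock medium); overnight-cultured colonies suspended in saline, diluted 1:100. 35 °C, 22–24 h; absorbance read. MITC95 = lowest compound conc giving 95% growth inhibition.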

The subject of series [6] is Klebsiella pneumoniae expressing VIM-1 (IHMA599644). It counts as cell-based. Conditions: with imipenem 1 μg/ml; 95% inhibition of bacterial growth. A digest of the protocol:
as §2

Series [7] has as its system Serratia marcescens expressing IMP-1 (CL5741). It counts as cell-based. Conditions: with imipenem 1 μg/ml; 95% inhibition of bacterial growth. A digest of the protocol: as §2
The subject of series [8] is P. aeruginosa MB9798 (efflux+, IMP-1 plasmid). Conditions: for MB9798 MITC95 P. aeruginosa uM Efflux WT: efflux + (MB9798) strain, imipenem at 2 μg/mL, in the presence of a class A, C, D serine β-lactamase inhibitor closely related to relebactam; for Efflux ratio: fold difference between efflux+ (MB9798) and efflux− (MB9799) strains. A digest of the protocol: (§3)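 PAO1-derived isogenic pair (oprD+, inducible AmpC), efflux+ MB5919 or efflux− MB5890 parent, carrying an electroporated IMP-1 plasmid from a clinical isolate. Microbroth MIC with fixed imipenem and/or ceftazidime (usually CLSI breakpoint) plus fixed class A/C inhibitor; MBL inhibitor serially titrated, concentration restoring susceptibility recorded.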

In series [9] the test system is P. aeruginosa MB9799 (efflux-, IMP-1 plasmid). It counts as cell-based, Pseudomonas aeruginosa. The note with it: efflux − (MB9799) strain; imipenem at 2 μg/mL; in the presence of a class A, C, D serine β-lactamase inhibitor closely related to relebactam. A digest of the protocol: as §3

This is an account of results in US11207312B2, “Metallo-beta-lactamase inhibitors and methods of use thereof” (priority 2017, dated 2021).

SMILES strings stand for the structures.

Sequence of NDM-1 (C7C422 whole entry, looked up, species assumed): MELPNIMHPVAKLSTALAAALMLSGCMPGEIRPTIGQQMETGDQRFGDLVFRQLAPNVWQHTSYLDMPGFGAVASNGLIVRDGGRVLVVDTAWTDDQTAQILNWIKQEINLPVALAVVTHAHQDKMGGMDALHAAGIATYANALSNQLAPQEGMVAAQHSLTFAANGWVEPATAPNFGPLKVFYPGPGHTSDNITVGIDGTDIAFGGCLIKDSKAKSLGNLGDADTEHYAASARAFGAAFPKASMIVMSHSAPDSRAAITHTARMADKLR

A word on the IC50: it is the midpoint of a concentration-inhibition curve. As to `N[C@@H]1CCN(c2ccc(S(=O)(=O)N[C@@H]3CCNC3)c(S(N)(=O)=O)c2-c2nn[nH]n2)C[C@@H]1F` [Example 198, 4-((3S,4R)-4-amino-3-fluoropiperidin-1-yl)-N1-((R)-pyrrolidin-3-yl)-3-(2H-tetrazol-5-yl)benzene-1,2-disulfonamide], the IC50 in series [1] was determined as 1.82 nM; in series [2], 5.62 nM; in series [3], 0.2 nM; in series [4], 11 nM. For the same compound, in [5], the “CLB30016 E. coli MITC95 NDM” value was determined as 0.39 µM. In addition, in series [6], the “IHMA599644 K. pneumoniae MITC95 VIM” value came to 0.39 µM. In series [7], the “CL5741 S. marcescens MITC95 IMP” value was found to be 0.20 µM. Also, the “MB9798 MITC95 P. aeruginosa uM Efflux WT” value in series [8] is 0.78 µM. The Efflux ratio in [8] is listed as 1.00. In addition, in [9], the “MB9799 MITC95 P. aeruginosa uM Efflux Mutant” value was determined as 0.78 µM.

For `N[C@H]1CCN(c2ccc(S(=O)(=O)N[C@@H]3CCNC3)c(S(N)(=O)=O)c2-c2nn[nH]n2)C[C@H]1F` [Example 199, 4-((3R,4S)-4-amino-3-fluoropiperidin-1-yl)-N1-((R)-pyrrolidin-3-yl)-3-(2H-tetrazol-5-yl)benzene-1,2-disulfonamide], the IC50 was 1.69 nM in series [1], 6.11 nM in [2], 0.18 nM in series [3] and 4.27 nM in [4]. In addition, the “CLB30016 E. coli MITC95 NDM” value in [5] was determined as 0.39 µM. Further, in series [6], the “IHMA599644 K. pneumoniae MITC95 VIM” value worked out at 0.39 µM. Also, the “CL5741 S. marcescens MITC95 IMP” value in series [7] came out at 0.10 µM. For the same compound, the “MB9798 MITC95 P. aeruginosa uM Efflux WT” value in series [8] was found to be 0.78 µM. Moreover, the Efflux ratio in series [8] is given as 1.00. Also, the “MB9799 MITC95 P. aeruginosa uM Efflux Mutant” value in series [9] is 0.78 µM.

In the case of `NCC1CCN(c2ccc(S(=O)(=O)NC[C@@H](N)CN)c(S(N)(=O)=O)c2-c2nn[nH]n2)CC1` [Example 200, (S)-4-(4-(aminomethyl)piperidin-1-yl)-N1-(2,3-diaminopropyl)-3-(2H-tetrazol-5-yl)benzene-1,2-disulfonamide], the IC50 in series [1] is 3.1 nM; in series [2], 4.57 nM; in series [3] it was 0.51 nM; in [4], 8.28 nM. Besides, the “CLB30016 E. coli MITC95 NDM” value in series [5] amounted to 0.78 µM. Moreover, the “IHMA599644 K. pneumoniae MITC95 VIM” value in series [6] was determined as 3.13 µM. The “CL5741 S. marcescens MITC95 IMP” value in [7] came to 1.56 µM. Further, the “MB9798 MITC95 P. aeruginosa uM Efflux WT” value in [8] was determined as 50.00 µM. The Efflux ratio in series [8] is 1.00. Also, the “MB9799 MITC95 P. aeruginosa uM Efflux Mutant” value in series [9] was 50.00 µM.

As for `NC[C@@H](O)CNS(=O)(=O)c1ccc(N2CCC(c3ncc[nH]3)CC2)c(-c2nn[nH]n2)c1S(N)(=O)=O` [Example 201, (R)-4-(4-(1H-imidazol-2-yl)piperidin-1-yl)-N1-(3-amino-2-hydroxypropyl)-3-(2H-tetrazol-5-yl)benzene-1,2-disulfonamide], the IC50 came to 1.83 nM in [1], 0.77 nM in series [2], 0.26 nM in series [3] and 0.64 nM in series [4]. Moreover, in series [5], the “CLB30016 E. coli MITC95 NDM” value was determined as 0.39 µM. The “IHMA599644 K. pneumoniae MITC95 VIM” value in series [6] worked out at 1.56 µM. In [7], the “CL5741 S. marcescens MITC95 IMP” value stood at 0.78 µM. The “MB9798 MITC95 P. aeruginosa uM Efflux WT” value in [8] came to 1.56 µM. Further, in series [8], the Efflux ratio came to 2.00. In series [9], the “MB9799 MITC95 P. aeruginosa uM Efflux Mutant” value turned out to be 0.78 µM.

As to `NCCNS(=O)(=O)C1CCN(c2ccc(S(=O)(=O)N[C@@H](CN)CO)c(S(N)(=O)=O)c2-c2nn[nH]n2)CC1` [Example 202, (S)-N1-(1-amino-3-hydroxypropan-2-yl)-4-(4-(N-(2-aminoethyl)sulfamoyl)piperidin-1-yl)-3-(2H-tetrazol-5-yl)benzene-1,2-disulfonamide], the IC50 in [1] was determined as 0.44 nM; in series [2], 0.58 nM; in series [3], 0.09 nM; in series [4] it was 1.6 nM. In series [5], the “CLB30016 E. coli MITC95 NDM” value was found to be 0.78 µM. In addition, the “IHMA599644 K. pneumoniae MITC95 VIM” value in series [6] came to 1.56 µM. For the same compound, the “CL5741 S. marcescens MITC95 IMP” value in series [7] came out at 1.56 µM. Besides, the “MB9798 MITC95 P. aeruginosa uM Efflux WT” value in series [8] was found to be 1.56 µM. For the same compound, the Efflux ratio in [8] was 1.00. Also, the “MB9799 MITC95 P. aeruginosa uM Efflux Mutant” value in [9] is 1.56 µM.
